± gives the standard deviation of the averaged measurements.
Experiments:
[1] = compound: T1, CC[C@@H]1C(=O)N(C)c2cnc(Nc3ccc(C(=O)NC4CCN(C)CC4)cc3OC)nc2N1C1CCCC1 [BI-2536]; experiment: area under dose-response curve of surviving fraction (unscaled, Aref=0) (surviving fraction x log10(nM)); higher = more resistant; details: exposure time: 5 days; dose range 0.5-1000 nM
Outline: (§1)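 Tumour cell lines in 384-well plates were exposed for five days to eight inhibitor concentrations from 0.5 to 1000 nM. Viability was read by CellTiter-Glo luminescence, normalised to DMSO-only wells, in three screens per line. Dose-response survival curves were fitted to surviving fractions by 3-parameter logistic regression in the drc R package. Area under the curve is the unscaled activity area (Aref = 0) over log10 dose.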

[2] = compound: T2, CN(C)C/C=C/C(=O)Nc1cc2c(Nc3ccc(F)c(Cl)c3)ncnc2cc1O[C@H]1CCOC1 [AFATINIB]; experiment: as above; details: exposure time: 5 days; dose range 0.5-1000 nM
Outline: as §1

[3] = compound: T3, CNC(=O)c1ccc(N2C(=S)N(c3ccc(C#N)c(C(F)(F)F)c3)C(=O)C2(C)C)cc1F [MDV3100]; experiment: as above; details: exposure time: 5 days; dose range 0.5-1000 nM
Outline: as §1

[4] = compound: T4, C=CC(=O)Nc1cc2c(Nc3ccc(F)c(Cl)c3)ncnc2cc1OCCCN1CCOCC1 [CANERTINIB]; experiment: as above; details: exposure time: 5 days; dose range 0.5-1000 nM
Outline: as §1

[5] = compound: T5, Nc1nc2[nH]cnc2c(=S)[nH]1 [TIOGUANINE]; experiment: as above; details: exposure time: 5 days; dose range 0.5-1000 nM
Outline: as §1

[6] = compound: T6, CC1(C)CC(=O)c2c(C(F)(F)F)nn(-c3ccc(C(N)=O)c(N[C@H]4CC[C@H](OC(=O)CN)CC4)c3)c2C1 [SNX-5422]; experiment: as above; details: exposure time: 5 days; dose range 0.5-1000 nM
Outline: as §1

[7] = compound: Cn1cc(C2=Nc3cc(NC(=O)C(N)C4CCCCC4)cc4c3C2=CNNC4=O)cn1; experiment: as above; details: exposure time: 5 days; dose range 0.5-1000 nM
Outline: as §1

[8] = compound: T7, CCCCCCCCCCCCCCCC(=O)Nc1ccn([C@@H]2O[C@H](CO)[C@@H](O)[C@@H]2C#N)c(=O)n1 [SAPACITABINE]; experiment: as above; details: exposure time: 5 days; dose range 0.5-1000 nM
Outline: as §1

[9] = compound: T1, BI-2536; experiment: surviving fraction relative to DMSO-only wells; higher = less growth inhibition; details: exposure time: 5 days
Outline: (§2)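 Surviving fraction was calculated by normalising CellTiter-Glo luminescence to the median of DMSO-only wells. Tumour cell lines in log phase were seeded in 384-well plates at 250–500 cells per well, and 24 hours later were exposed continuously for five days to inhibitors at 0.5, 1, 5, 10, 50, 100, 500 and 1000 nM.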

[10] = compound: T2, AFATINIB; experiment: as above; details: exposure time: 5 days
Outline: as §2

[11] = compound: T3, MDV3100; experiment: as above; details: exposure time: 5 days
Outline: as §2

[12] = compound: T4, CANERTINIB; experiment: as above; details: exposure time: 5 days
Outline: as §2

[13] = compound: T5, TIOGUANINE; experiment: as above; details: exposure time: 5 days
Outline: as §2

[14] = compound: T6, SNX-5422; experiment: as above; details: exposure time: 5 days
Outline: as §2

[15] = compound: Cn1cc(C2=Nc3cc(NC(=O)C(N)C4CCCCC4)cc4c3C2=CNNC4=O)cn1; experiment: as above; details: exposure time: 5 days
Outline: as §2

[16] = compound: T7, SAPACITABINE; experiment: as above; details: exposure time: 5 days
Outline: as §2

MDAMB468 BREAST
area under dose-response curve [1]: 1.06 | area under dose-response curve [2]: 2.26 | area under dose-response curve [3]: 3.41 | area under dose-response curve [4]: 2.41 | area under dose-response curve [5]: 3.52 | area under dose-response curve [6]: 1.94 | area under dose-response curve [7]: 2.58 | area under dose-response curve [8]: 2.27 | surviving fraction ([9]; 0.5 nM): 0.902 ± 0.037 | surviving fraction ([9]; 1 nM): 0.462 ± 0.048 | surviving fraction ([9]; 5 nM): 0.0863 ± 0.0084 | surviving fraction ([9]; 10 nM): 0.111 ± 0.018 | surviving fraction ([9]; 50 nM): 0.215 ± 0.018 | surviving fraction ([9]; 100 nM): 1.05 ± 0.061 | surviving fraction ([9]; 500 nM): 0.111 ± 0.008 | surviving fraction ([9]; 1000 nM): 0.084 ± 0.0027 | surviving fraction ([10]; 0.5 nM): 1.07 ± 0.026 | surviving fraction ([10]; 1 nM): 1.04 ± 0.021 | surviving fraction ([10]; 5 nM): 0.861 ± 0.078 | surviving fraction ([10]; 10 nM): 0.767 ± 0.14 | surviving fraction ([10]; 50 nM): 0.61 ± 0.017 | surviving fraction ([10]; 100 nM): 0.617 ± 0.025 | surviving fraction ([10]; 500 nM): 0.297 ± 0.012 | surviving fraction ([10]; 1000 nM): 0.0913 ± 0.0067 | surviving fraction ([11]; 0.5 nM): 0.972 ± 0.053 | surviving fraction ([11]; 1 nM): 0.952 ± 0.072 | surviving fraction ([11]; 5 nM): 1.05 ± 0.11 | surviving fraction ([11]; 10 nM): 1.01 ± 0.068 | surviving fraction ([11]; 50 nM): 1.14 ± 0.094 | surviving fraction ([11]; 100 nM): 1.04 ± 0.13 | surviving fraction ([11]; 500 nM): 1.05 ± 0.038 | surviving fraction ([11]; 1000 nM): 0.97 ± 0.11 | surviving fraction ([12]; 0.5 nM): 0.866 ± 0.035 | surviving fraction ([12]; 1 nM): 0.837 ± 0.087 | surviving fraction ([12]; 5 nM): 0.841 ± 0.087 | surviving fraction ([12]; 10 nM): 0.777 ± 0.054 | surviving fraction ([12]; 50 nM): 0.789 ± 0.068 | surviving fraction ([12]; 100 nM): 0.72 ± 0.07 | surviving fraction ([12]; 500 nM): 0.478 ± 0.029 | surviving fraction ([12]; 1000 nM): 0.382 ± 0.017 | surviving fraction ([13]; 0.5 nM): 1.02 ± 0.079 | surviving fraction ([13]; 1 nM): 0.995 ± 0.025 | surviving fraction ([13]; 5 nM): 1.08 ± 0.056 | surviving fraction ([13]; 10 nM): 1.06 ± 0.1 | surviving fraction ([13]; 50 nM): 1.1 ± 0.056 | surviving fraction ([13]; 100 nM): 1.19 ± 0.087 | surviving fraction ([13]; 500 nM): 1.04 ± 0.087 | surviving fraction ([13]; 1000 nM): 1.05 ± 0.042 | surviving fraction ([14]; 0.5 nM): 1.038 ± 0.0097 | surviving fraction ([14]; 1 nM): 1.05 ± 0.097 | surviving fraction ([14]; 5 nM): 1.1 ± 0.043 | surviving fraction ([14]; 10 nM): 1.033 ± 0.009 | surviving fraction ([14]; 50 nM): 0.138 ± 0.013 | surviving fraction ([14]; 100 nM): 0.164 ± 0.021 | surviving fraction ([14]; 500 nM): 0.221 ± 0.026 | surviving fraction ([14]; 1000 nM): 0.207 ± 0.031 | surviving fraction ([15]; 0.5 nM): 0.95 ± 0.0069 | surviving fraction ([15]; 1 nM): 0.975 ± 0.067 | surviving fraction ([15]; 5 nM): 0.984 ± 0.049 | surviving fraction ([15]; 10 nM): 0.978 ± 0.031 | surviving fraction ([15]; 50 nM): 0.858 ± 0.025 | surviving fraction ([15]; 100 nM): 0.786 ± 0.11 | surviving fraction ([15]; 500 nM): 0.151 ± 0.0051 | surviving fraction ([15]; 1000 nM): 0.0767 ± 0.0046 | surviving fraction ([16]; 0.5 nM): 0.811 ± 0.012 | surviving fraction ([16]; 1 nM): 0.862 ± 0.087 | surviving fraction ([16]; 5 nM): 0.88 ± 0.069 | surviving fraction ([16]; 10 nM): 0.847 ± 0.086 | surviving fraction ([16]; 50 nM): 0.792 ± 0.03 | surviving fraction ([16]; 100 nM): 0.56 ± 0.07 | surviving fraction ([16]; 500 nM): 0.204 ± 0.018 | surviving fraction ([16]; 1000 nM): 0.193 ± 0.028

SNU475 LIVER
area under dose-response curve [1]: 1.41 | area under dose-response curve [2]: 2.99 | area under dose-response curve [3]: 2.8 | area under dose-response curve [4]: 2.91 | area under dose-response curve [5]: 3.14 | area under dose-response curve [6]: 2.29 | area under dose-response curve [7]: 3 | area under dose-response curve [8]: 2.23 | surviving fraction ([9]; 0.5 nM): 1.03 ± 0.05 | surviving fraction ([9]; 1 nM): 1.01 ± 0.065 | surviving fraction ([9]; 5 nM): 0.587 ± 0.06 | surviving fraction ([9]; 10 nM): 0.255 ± 0.026 | surviving fraction ([9]; 50 nM): 0.2 ± 0.033 | surviving fraction ([9]; 100 nM): 0.16 ± 0.0044 | surviving fraction ([9]; 500 nM): 0.169 ± 0.0055 | surviving fraction ([9]; 1000 nM): 0.174 ± 0.018 | surviving fraction ([10]; 0.5 nM): 1.01 ± 0.03 | surviving fraction ([10]; 1 nM): 0.985 ± 0.029 | surviving fraction ([10]; 5 nM): 0.953 ± 0.062 | surviving fraction ([10]; 10 nM): 0.937 ± 0.028 | surviving fraction ([10]; 50 nM): 0.922 ± 0.024 | surviving fraction ([10]; 100 nM): 0.893 ± 0.054 | surviving fraction ([10]; 500 nM): 0.717 ± 0.012 | surviving fraction ([10]; 1000 nM): 0.432 ± 0.027 | surviving fraction ([11]; 0.5 nM): 1.03 ± 0.034 | surviving fraction ([11]; 1 nM): 0.903 ± 0.024 | surviving fraction ([11]; 5 nM): 1 ± 0.039 | surviving fraction ([11]; 10 nM): 0.438 ± 0.011 | surviving fraction ([11]; 50 nM): 1.01 ± 0.018 | surviving fraction ([11]; 100 nM): 0.902 ± 0.016 | surviving fraction ([11]; 500 nM): 0.974 ± 0.014 | surviving fraction ([11]; 1000 nM): 0.516 ± 0.02 | surviving fraction ([12]; 0.5 nM): 0.917 ± 0.0099 | surviving fraction ([12]; 1 nM): 0.8847 ± 0.0057 | surviving fraction ([12]; 5 nM): 0.88 ± 0.051 | surviving fraction ([12]; 10 nM): 0.85 ± 0.041 | surviving fraction ([12]; 50 nM): 0.9373 ± 0.0055 | surviving fraction ([12]; 100 nM): 0.908 ± 0.024 | surviving fraction ([12]; 500 nM): 0.869 ± 0.022 | surviving fraction ([12]; 1000 nM): 0.808 ± 0.058 | surviving fraction ([13]; 0.5 nM): 0.949 ± 0.025 | surviving fraction ([13]; 1 nM): 0.963 ± 0.02 | surviving fraction ([13]; 5 nM): 0.961 ± 0.036 | surviving fraction ([13]; 10 nM): 0.957 ± 0.028 | surviving fraction ([13]; 50 nM): 0.966 ± 0.099 | surviving fraction ([13]; 100 nM): 0.992 ± 0.025 | surviving fraction ([13]; 500 nM): 0.899 ± 0.054 | surviving fraction ([13]; 1000 nM): 0.916 ± 0.012 | surviving fraction ([14]; 0.5 nM): 1.024 ± 0.0066 | surviving fraction ([14]; 1 nM): 1.05 ± 0.045 | surviving fraction ([14]; 5 nM): 1.06 ± 0.016 | surviving fraction ([14]; 10 nM): 1.01 ± 0.068 | surviving fraction ([14]; 50 nM): 0.565 ± 0.033 | surviving fraction ([14]; 100 nM): 0.358 ± 0.011 | surviving fraction ([14]; 500 nM): 0.245 ± 0.014 | surviving fraction ([14]; 1000 nM): 0.234 ± 0.012 | surviving fraction ([15]; 0.5 nM): 0.965 ± 0.028 | surviving fraction ([15]; 1 nM): 0.967 ± 0.053 | surviving fraction ([15]; 5 nM): 0.987 ± 0.013 | surviving fraction ([15]; 10 nM): 1.01 ± 0.02 | surviving fraction ([15]; 50 nM): 0.892 ± 0.038 | surviving fraction ([15]; 100 nM): 0.898 ± 0.046 | surviving fraction ([15]; 500 nM): 0.731 ± 0.034 | surviving fraction ([15]; 1000 nM): 0.514 ± 0.082 | surviving fraction ([16]; 0.5 nM): 0.888 ± 0.063 | surviving fraction ([16]; 1 nM): 0.726 ± 0.057 | surviving fraction ([16]; 5 nM): 0.83 ± 0.03 | surviving fraction ([16]; 10 nM): 0.365 ± 0.03 | surviving fraction ([16]; 50 nM): 0.962 ± 0.057 | surviving fraction ([16]; 100 nM): 0.745 ± 0.025 | surviving fraction ([16]; 500 nM): 0.573 ± 0.016 | surviving fraction ([16]; 1000 nM): 0.291 ± 0.015
